Experimental data as given in patent US6255098A, “DS11 (KCTC 0231BP), novel Bacillus sp. strain and novel phytase produced by it” (priority 1996, dated 2001).

Target: T1, novel phytase produced by Bacillus sp. DS11 (KCTC 0231BP), N-terminal amino acid sequence SEQ ID NO: 1 (Bacillus sp., UniProt O66037)
T1 construct: made in house; host or cells: Bacillus sp; DS11 (KCTC 0231BP), native producer strain; enzyme purified from culture supernatant
Assay: biochemical
Type: biochemical
Conditions: for enzyme activity with additive (Non-addition = 100): 30 min
Experimental: The potency of produced enzyme was measured as follows: By using a substrate, comprising 2 mM phytic acid sodium salts and 2 mM CaCl2 in 0.1 M Tris buffer solution (pH 7.0), the enzyme was reacted at 37° C. for 30 minutes to measure the amount of phosphoric acid generated. One unit of the enzymatic potency is equivalent to the enzymatic amount degrading 1 μ mol of inorganic phosphate per 1 minute. As a result of said measurement, the novel enzyme has the enzymatic potency of 0.3 unit per protein mg. The maximum amount of enzyme in fermentation yielding 0.6 unit/mg was obtained when 30 l of strains, a working volume, was charged to a 50 l fermenter and cultivated at 37° C. for 48 hours under the following conditions: air influx--0.8 vvm; stirring rate--150 rpm.
2 l of novel strain solution, cultivated according to the procedure as described in said Example, was centrifuged for 15 minutes. Then, the supernatant solution was saturated with 50% acetone to precipitate proteins and the crude enzyme solution passed through dialysis membrane was purified on a column containing phenyl sepharose CL-4B, Resource S and superose 12 HR 10/30 (all of which are manufactured by Pharmacia, Sweden) so as to isolate the phytase enzyme only. The analytical results by said column are represented in the attached drawing FIG. 2.

[1] = 0.5 h, pH 7, read-out: enzyme activity with additive (Non-addition = 100)

T1 sequence (O66037 31-383): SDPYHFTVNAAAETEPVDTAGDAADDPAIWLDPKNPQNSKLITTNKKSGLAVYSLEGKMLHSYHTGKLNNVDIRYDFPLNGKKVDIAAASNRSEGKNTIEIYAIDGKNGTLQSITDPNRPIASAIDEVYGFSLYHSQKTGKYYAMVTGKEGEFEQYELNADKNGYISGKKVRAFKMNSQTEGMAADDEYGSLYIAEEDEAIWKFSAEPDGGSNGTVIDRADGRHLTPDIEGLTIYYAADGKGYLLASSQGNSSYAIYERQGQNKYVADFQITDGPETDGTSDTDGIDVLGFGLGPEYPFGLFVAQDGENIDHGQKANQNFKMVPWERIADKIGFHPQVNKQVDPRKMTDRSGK

O=C(O)CN(CCN(CC(=O)O)CC(=O)O)CC(=O)O [EDTA]
inhibition of enzyme activity (in words): inhibited the entire enzyme activity | remaining activity at 1000 µM [1]: 7.5% | remaining activity at 5000 µM [1]: 7.6%

O=S(=O)(F)Cc1ccccc1 [PMSF]
enzyme activity with additive (Non-addition = 100) (additive concentration 1 mM): 86 | enzyme activity with additive (Non-addition = 100) (additive concentration 5 mM): 88
